Results as given in patent US20250228239A1, “MOLECULES HAVING PESTICIDAL UTILITY, AND INTERMEDIATES, COMPOSITIONS, AND PROCESSES, RELATED THERETO” (priority 2024, published 2025).

Experiments:
Format in all cases: in vivo
[1] = test system: Yellow Fever Mosquito (Aedes aegypti, AEDSAE); conditions: Yellow Fever Mosquito; rating class
In short: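 Rating-scale grades reflect larval mortality scored per well after 3 days at room temperature under non-evaporative lids. Larvae (~1 day old, hatched overnight in liver-powder water) were added to six daughter plates per compound, prepared from a 4000 ppm DMSO stock diluted in 90:10 water/acetone.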

[2] = test system: Cabbage Looper (Trichoplusia ni, TRIPNI); test: Bioassays on Cabbage Looper (CL), 128-well diet tray assay; conditions: Trichoplusia ni; Cabbage Looper; rating class; read-out: CL
In short: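 Second-instar larvae (1–5 per well) placed on artificial diet surface-treated with 50 μg/cm^2 test molecule applied in 90:10 acetone-water and dried. Held at 25° C., 14:10 light-dark, for five to seven days. Percent mortality scored per well and averaged over eight wells.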

[3] = test system: Green Peach Aphid (Myzus persicae, MYZUPE); test: Bioassays on Green Peach Aphid (GPA), foliar spray on cabbage seedlings; conditions: 72 h, Green Peach Aphid, rating class, read-out: GPA
In short: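 Percent control (Abbott-corrected versus solvent-sprayed plants) comes from live-aphid counts three days after treatment at about 25° C. Test solution at 200 ppm was sprayed to runoff onto both leaf surfaces of cabbage seedlings infested a day earlier with 20-50 aphids; four replicate pots.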

[4] = test system: Beet Armyworm (Spodoptera exigua, LAPHEG); test: Bioassays on Beet Armyworm (BAW), 128-well diet tray assay; conditions: Spodoptera exigua; Beet Armyworm; rating class; read-out: BAW
In short: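 Eight diet wells per compound were treated at 50 μg/cm^2 (acetone-water 90:10), dried, then infested with 1–5 second-instar larvae each. After five to seven days at 25 °C under 14:10 photoperiod, mortality was scored and averaged across wells.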

Row | Structure (SMILES) | YFM [1] | pest or weed control at 50 µg/cm2 [2] | pest or weed control at 200 µg/mL [3] | pest or weed control at 50 µg/cm2 [4]
1 | CCCC(=O)Nc1c(F)ccc(NC(=O)c2cc(NC(=O)[C@H]3[C@H](c4ccc(F)c(Cl)c4)C3(Cl)Cl)ccc2Cl)c1F [F1705, N-(3-Butyramido-2,4-difluorophenyl)-2-chloro-5-((1R,3R)-2,2-dichloro-3-(3-chloro-4-fluorophenyl)cyclopropane-1-carboxamido)benzamide] | B (More than 0 – Less than 80) | 50 to 100% | 80 to 100% | 50 to 100%
2 | CC(=O)Nc1c(F)ccc(NC(=O)c2cc(NC(=O)[C@H]3[C@H](c4cc(F)cc(C(F)(F)F)c4)C3(Cl)Cl)ccc2Cl)c1F [F1708, N-(3-Acetamido-2,4-difluorophenyl)-2-chloro-5-((1R,3R)-2,2-dichloro-3-(3-fluoro-5-(trifluoromethyl)phenyl)cyclopropane-1-carboxamido)benzamide] | A (80–100) | 50 to 100% | 80 to 100% | 50 to 100%
3 | O=C(CC(F)(F)F)Nc1c(F)ccc(NC(=O)c2cc(NC(=O)[C@H]3[C@H](c4cc(F)cc(C(F)(F)F)c4)C3(Cl)Cl)ccc2Cl)c1F [F1710, 2-Chloro-5-((1R,3R)-2,2-dichloro-3-(3-fluoro-5-(trifluoromethyl)phenyl)cyclopropane-1-carboxamido)-N-(2,4-difluoro-3-(3,3,3-trifluoropropanamido)phenyl)benzamide] | A (80–100) | 50 to 100% | 0 to 80% | 50 to 100%
4 | O=C(Nc1ccc(F)c(NC(=O)C(F)F)c1F)c1cc(NC(=O)[C@H]2[C@H](c3cc(F)cc(C(F)(F)F)c3)C2(Cl)Cl)ccc1Cl [F1711, 2-Chloro-5-((1R,3R)-2,2-dichloro-3-(3-fluoro-5-(trifluoromethyl)phenyl)cyclopropane-1-carboxamido)-N-(3-(2,2-difluoroacetamido)-2,4-difluorophenyl)benzamide] | A (80–100) | 50 to 100% | 80 to 100% | 50 to 100%
5 | CC(C)(C)OC(=O)Nc1cc(NC(=O)c2cc(NC(=O)[C@H]3[C@H](c4ccc(F)c(C(F)(F)F)c4)C3(Cl)Cl)ccc2Cl)c(F)c(F)c1F [F1736, tert-Butyl (5-(2-chloro-5-((1R,3R)-2,2-dichloro-3-(4-fluoro-3-(trifluoromethyl)phenyl)cyclopropane-1-carboxamido)benzamido)-2,3,4-trifluorophenyl)carbamate] | A (80–100) | 50 to 100% | 0 to 80% | 50 to 100%
6 | CCOC(C)C(=O)Nc1c(F)ccc(NC(=O)c2cc(NC(=O)[C@H]3[C@H](c4cccc(C(F)(F)F)c4)C3(Cl)Cl)ccc2Cl)c1F (stereo partly drawn) [F1737, 2-Chloro-5-((1R,3R)-2,2-dichloro-3-(3-(trifluoromethyl)phenyl)cyclopropane-1-carboxamido)-N-(3-(2-ethoxypropanamido)-2,4-difluorophenyl)benzamide] | A (80–100) | 50 to 100% | 0 to 80% | 50 to 100%
7 | CCCOC(C)C(=O)Nc1c(F)ccc(NC(=O)c2cc(NC(=O)[C@H]3[C@H](c4ccc(F)c(C(F)(F)F)c4)C3(Cl)Cl)ccc2Cl)c1F (stereo partly drawn) [F1739, 2-Chloro-5-((1R,3R)-2,2-dichloro-3-(4-fluoro-3-(trifluoromethyl)phenyl)cyclopropane-1-carboxamido)-N-(2,4-difluoro-3-(2-propoxypropanamido)phenyl)benzamide] | A (80–100) | 50 to 100% | 0 to 80% | 50 to 100%
8 | Nc1cc(NC(=O)c2cc(NC(=O)[C@H]3[C@H](c4ccc(F)c(C(F)(F)F)c4)C3(Cl)Cl)ccc2Cl)c(F)c(F)c1F [F1740, N-(5-Amino-2,3,4-trifluorophenyl)-2-chloro-5-((1R,3R)-2,2-dichloro-3-(4-fluoro-3-(trifluoromethyl)phenyl)cyclopropane-1-carboxamido)benzamide] | A (80–100) | 50 to 100% | 80 to 100% | 50 to 100%
9 | O=C(COC(F)(F)F)Nc1c(F)ccc(NC(=O)c2cc(NC(=O)[C@H]3[C@H](c4ccc(F)c(C(F)(F)F)c4)C3(Cl)Cl)ccc2Cl)c1F [F1742, 2-Chloro-5-((1R,3R)-2,2-dichloro-3-(4-fluoro-3-(trifluoromethyl)phenyl)cyclopropane-1-carboxamido)-N-(2,4-difluoro-3-(2-(trifluoromethoxy)acetamido)phenyl)benzamide] | A (80–100) | 50 to 100% | 0 to 80% | 50 to 100%
